Assay results taken from US10576151B2, “Ciclopirox for use in modulation of glucose homeostasis” (UNIVERSITY OF SOUTH CAROLINA, priority 2015, dated 2020).
“Also recorded” adds a separate entry of the source.

Key:
pancreatic islets [1] = assay: Islet survival under increasing glucose (glucotoxicity), CellTiter 96 AQueous One; format: cell-based, mice; settings: for protection from glucotoxicity (islet survival): increasing glucose
Procedure: Islet Isolation and Viability Assessment. Pancreatic islets were manually isolated from female C57BI/6 mice by the collagenase digestion method (Sigma-Aldrich; Li et al. 2009) and placed in a 96-well plate. The islets were incubated at 37° C. with 95% air and 5% CO2. Islets were manually picked after dithizone (DTZ; Sigma Chemical Co) staining. Before experiments were performed, the islet cells were incubated with extracellular Krebs-Ringer (KR) solution (Sigma-Aldrich) and with increasing amounts of glucose for 24 h and 48 h. Islet cell viability was assessed using CellTiter 96 AQueous One Solution Cell Proliferation Assay from Promega (Madison, USA). Islets from wt, p21-deficient, p53-deficient and CHOP-deficient mice were exposed to CPX at 20 μM for 24 h under increasing glucose amounts in the culture media, then they were let to recover for 48 h in normal glucose-containing media and their survival was assessed (FIG. 9). The 48 h recovery in normal media was deemed necessary because CPX, by inducing p21 expression would inflict cell cycle arrest in islets masking the effects of glucotoxicity. […] The p21-stimulatory activity of CPX in the islets is also p53-independent. […] Consistently with its pro-apoptotic role during ER stress CHOP ablation conferred resistance of islets to glucotoxicity (FIG. 10 at B).

p21-deficient mice = assay: Fasting glucose in diet-induced diabetic p21-deficient mice; format: in vivo; settings: CPX as in wt controls, delayed response (FIG. 5A)
Description: In Vivo Analysis of Anti-Diabetic Effect of CPX. Mice were randomly grouped. A group of C57BI/6 mice 4-5 weeks old, were fed with either a solution of 10% sucrose and a diet containing 40% kcal as a high-fat diet (HFD; Open Source Diets (New Brunswick, N.J., USA) D12451, 40% calories/fat with free access to (10%) sweetened water (sucrose) or a control chow diet containing 10% of kcal as fat (low-fat diet) and drinking water with no added sucrose (control). Mice with a glucose concentration exceeding 180 mg/dL were considered diabetic, after 2 consecutive glucose measurements. The blood glucose levels were measured using an Accu-Check blood glucose monitor (Roche, Indianapolis, Ind., USA) using blood sample collected from the tail vein. Diabetic mice were treated with either treated daily for 20 days by oral gavages with CPX (25 mg/kg) prepared in a solution (4% ethanol, 5.2% Tween 80, and 5.2% PEG 400) or vehicle control. […]
Glucose Level Determination and Intraperitoneal Insulin Tolerance Test. […] Glucose levels of mice were measured by an Accu-Chek Active meter (ROCHE) with blood sample obtained from the tail. […] For insulin resistance test, mice were injected intraperitoneally at a dose of 0.75 units/kg with human insulin (0.75 U/kg body weight; Sigma) at different time points as indicated, as for glucose tolerance after insulin injection and blood glucose was measured as described. […]

C57BI/6 mice = assay: Glucose tolerance test (i.p. 2 g glucose/kg); format: in vivo
Procedure: Glucose Level Determination and Intraperitoneal Insulin Tolerance Test. Mice were fasted for 6 h. Glucose levels of mice were measured by an Accu-Chek Active meter (ROCHE) with blood sample obtained from the tail. For glucose tolerance, mice were injected i.p. with 2 g glucose/kg blood glucose was checked at different time points as indicated (at either 0, 30, 60, 90, 120, 160, 220 min.). For insulin resistance test, mice were injected intraperitoneally at a dose of 0.75 units/kg with human insulin (0.75 U/kg body weight; Sigma) at different time points as indicated, as for glucose tolerance after insulin injection and blood glucose was measured as described.

pancreatic islets [2] = assay: Insulin release from islets following glucose stimulation; format: cell-based, mice; settings: insulin in the media (FIG. 11A)
Procedure: In order to understand better how CPX operates in β cells, it was tested to determine if it affected the efficiency by which insulin is produced following glucose stimulation. […] In view of the antidiabetic activity of CPX in vivo, the inhibition of insulin release appears contradictory. Thus, it was hypothesized that reduced insulin secretion may be linked to reduced ER stress and blunted unfolded protein response, which in turn could explain in the long run the increased survival and functionality of the animals that received CPX. To test this hypothesis, islets were exposed to CPX and high glucose and the levels were tested of chaperones BiP, GRP94 and CHOP that reflect the intensity of the UPR. […] In line with these observations and consistently with the insulin levels in the media (FIG. 11 at A) were also the levels of insulin in the β islets (FIG. 11 at B).

diabetic wt mice = assay: Fasting glucose in diet-induced diabetic wild type mice; format: in vivo, C57BI/6 mice; settings: wt mice diabetic by high fat diet and sweetened water; CPX 25 mg/kg daily (FIG. 5A)
Description: In Vivo Analysis of Anti-Diabetic Effect of CPX. Mice were randomly grouped. A group of C57BI/6 mice 4-5 weeks old, were fed with either a solution of 10% sucrose and a diet containing 40% kcal as a high-fat diet (HFD; Open Source Diets (New Brunswick, N.J., USA) D12451, 40% calories/fat with free access to (10%) sweetened water (sucrose) or a control chow diet containing 10% of kcal as fat (low-fat diet) and drinking water with no added sucrose (control). Mice with a glucose concentration exceeding 180 mg/dL were considered diabetic, after 2 consecutive glucose measurements. The blood glucose levels were measured using an Accu-Check blood glucose monitor (Roche, Indianapolis, Ind., USA) using blood sample collected from the tail vein. Diabetic mice were treated with either treated daily for 20 days by oral gavages with CPX (25 mg/kg) prepared in a solution (4% ethanol, 5.2% Tween 80, and 5.2% PEG 400) or vehicle control. […] Glucose levels of mice were measured by an Accu-Chek Active meter (ROCHE) with blood sample obtained from the tail. […] For insulin resistance test, mice were injected intraperitoneally at a dose of 0.75 units/kg with human insulin (0.75 U/kg body weight; Sigma) at different time points as indicated, as for glucose tolerance after insulin injection and blood glucose was measured as described. […]

With `Cc1cc(C2CCCCC2)n(O)c(=O)c1` [CPX, 6-cyclohexyl-1-hydroxy-4-methylpyridin-2(1H)-one] the “protection from glucotoxicity (islet survival)” value (from here on “protection from glucotoxicity”) (pancreatic islets [1]; p21-deficient islets, CPX 20 μM 24 h then 48 h recovery (FIG. 10D)) was “not p21-deficient animals”, the “protection from glucotoxicity” value (pancreatic islets [1]; p53-deficient islets, CPX 20 μM 24 h then 48 h recovery (FIG. 10C)) was “A similar trend was also found for p53” and the “protection from glucotoxicity” value (pancreatic islets [1]; wt islets, CPX 20 μM 24 h then 48 h recovery (FIG. 10A)) was “protected wt”. For the same compound, the islet growth (pancreatic islets [1]; wt islets, normal glucose, CPX 20 μM 24 h then 48 h recovery (FIG. 10A)) was “significantly inhibited islet growth”, the “glucose regulation (fasting glucose)” value (p21-deficient mice) was “responded significantly to CPX in terms of glucose regulation” and the glucose tolerance (C57BI/6 mice; diabetic mice, CPX vs saline (FIG. 6A)) was “restored the response of diabetic mice to acute administration of glucose”. For the same compound, the glucose tolerance (C57BI/6 mice; non-diabetic wt mice on normal diet, CPX vs saline (FIG. 7B)) was “not affected”, the release of insulin (pancreatic islets [2]) was “strong inhibition of insulin production; also recorded: suppressed the release of insulin” and the “blood glucose levels (fasting glucose)” value (diabetic wt mice) was “effectively improved glucose homeostasis causing reduction of blood glucose levels”.
